What was measured:
[1] = system: VMAT2; experiment: PET quantification of VMAT2 binding (BPND, Logan noninvasive analysis, cerebellum reference); type: in vivo, cynomolgus monkey; details: for Binding potential (BPND) caudate / Binding potential (BPND) midbrain / Binding potential (BPND) putamen: Logan noninvasive analysis, cerebellum as reference region; for peak equilibrium: cynomolgus monkey brain, baseline PET
Text: The outcome measure was the binding potential (BPND).

[2] = Radiometabolite analysis in monkey plasma by gradient radio-HPLC; type: in vivo, cynomolgus monkey; details: 90 min after injection
Protocol: Radiometabolite analysis was performed following a method reported elsewhere.[34] Venous blood samples (2 mL) were obtained from the monkey at different time points such as 2.5, 15, 30, 45, 60, 90, 120, 150, and 180 min after injection of [^18F]FE-DTBZ/[^18F]FE-DTBZ-d4. For [^11C]-DTBZ, venous blood samples (2 mL) were obtained at time points 2.5, 15, 30, 45, 60, and 90 min after injection. Collected blood was centrifuged at 2000g for 2 min to obtain the plasma (0.5 mL). The plasma was mixed with 1.4 times volume of acetonitrile followed by centrifugation at 2000g for 4 min. The extract was separated from the pellet and was diluted with water before injecting into the HPLC equipped with a reverse-phase μ-Bondapak HPLC column, (300 mm × 10 mm I.D). […] Peaks for radioactive compounds eluting from the column were integrated and their areas were expressed as a percentage of the sum of the areas of all detected radioactive compounds (decay-corrected to the time of injection on the HPLC). To calculate the recovery of radioactivity from the system, an aliquot (2 mL) of the eluate from the HPLC column was measured and divided by the amount of the total injected radioanalyte.

[3] = Plasma protein binding by ultrafiltration; type: in vitro ADME; details: cynomolgus, cynomolgus monkey, pH 7.4, NHP plasma, baseline, read-out: plasma free fraction (fP)
Protocol: Plasma protein binding of all three radioligands was measured in duplicate in baseline conditions. NHP blood plasma (500 μL) and a PBS solution (pH 7.4, KCl 0.2 mg, KH2PO4 0.2 mg, Na2HPO4 1.42 mg, NaCl 8 mg in 1 mL) were mixed with the respective radioligand (50 μL, approx. 20 MBq in PBS). The plasma mixture was incubated for 10 min at room temperature and a small portion (20 μL) from each incubation mixture was measured in a well counter. A portion (200 μL) from all individual incubation mixtures was pipetted out into ultrafiltration tubes (Millipore Centrifree YM-30) and centrifuged at 3000 rpm for 15 min. Samples (20 μL) from each filtrate were counted in a well counter. The following formula was used to calculate the protein-bound fraction. [drawing 1] where Cpla (total) is the radioactivity concentration of the incubation mixture in plasma, CPBS (total) is the radioactivity concentration of the incubation mixture in PBS, and Cpla (filtrate) and […] the radioactivity concentrations from filtrate samples.

[4] = cited from earlier work
[5] = PET whole brain uptake and kinetics in cynomolgus monkeys (HRRT); details: whole brain peak, baseline PET
Protocol: Anesthesia was induced by intramuscular injection of ketamine hydrochloride (approximately 10 mg/kg, Ketaminol vet. Intervet) and maintained by the administration of a mixture of sevoflurane, oxygen, and medical air after endotracheal intubation. The head was immobilized using a fixation device.[32]
Three female cynomolgus monkeys (NHP1, NHP2, and NHP3) (weight of 5.8–6.95 kg) were studied in 10 different experimental days for a total of 12 PET experiments. All PET experiments were performed using a high-resolution research tomograph (HRRT) PET scanner (Siemens Molecular Imaging, Knoxville, TN). A 6 min transmission scan was performed every time before the injection of the radioligands using a single ^137Cs source. […]
All three monkeys underwent two PET measurements on the same day at once. […] Venous blood sampling was performed manually for the measurement of protein binding, blood, and plasma radioactivity and radiometabolite analysis. […]
The regions of interest (ROIs) were delineated manually on the MRI images of each NHP for putamen, caudate, midbrain, occipital cortex, and cerebellum. […] Quantification was performed using the Logan graphical analysis, and the cerebellum was used as a reference region. […]

[6] = system: VMAT2; experiment: Pretreatment and displacement PET with tetrabenazine using [^18F]FE-DTBZ-d4; type: in vivo, cynomolgus monkey; details: tetrabenazine 2 mg/kg
Protocol: In NHP1, one PET measurement was performed after pretreatment with tetrabenazine (2 mg/kg), which was administered 15 min prior to the administration of [^18F]FE-DTBZ-d4. In NHP2, two displacement experiments were performed with the administration of tetrabenazine (2 mg/kg) 25 min after the injection of [^18F]FE-DTBZ-d4.
The regions of interest (ROIs) were delineated manually on the MRI images of each NHP for putamen, caudate, midbrain, occipital cortex, and cerebellum. The MRI of all of the individual NHPs was coregistered to summed PET images of the whole PET measurement. The time–activity curves of NHP brain regions were generated from dynamic PET data with the application of the coregistration parameters to ROIs. Quantification was performed using the Logan graphical analysis, and the cerebellum was used as a reference region. The outcome measure was the binding potential (BPND).

[7] = system: VMAT2; details: cited from earlier work
[8] = system: VMAT2; details: rats; cited from earlier work

Compound | Binding potential (BPND) caudate [1] | peak equilibrium [1] [min] | Binding potential (BPND) midbrain [1] | Binding potential (BPND) putamen [1] | percent of unchanged radioligand in plasma [2] [%] | fraction unbound at 10 min, 36 MBq/mL [3] | bone uptake ([4]; PET/CT in pigs, compared with [^18F]FE-(+)-DTBZ) | brain uptake (SUV) [5] | uptake of [^18F]FE-DTBZ-d4 in caudate, putamen, and midbrain after pretreatment ([6]; 15 min prior to radioligand injection) | uptake of [^18F]FE-DTBZ-d4 in caudate, putamen, and midbrain in displacement experiment ([6]; 25 min after radioligand injection) | better binding affinity over the (−)-enantiomer [7] [fold] | striatum-to-cerebellum ratio [8] | in vivo metabolism ([4]; large piglet model)
[2H]C([2H])([18F])C([2H])([2H])Oc1cc2c(cc1OC)[C@H]1C[C@@H](O)[C@H](CC(C)C)CN1CC2 [[^18F]FE-DTBZ-d4] | 4.4 ± 1.1 | 40 | 1.4 ± 0.4 | 5.5 ± 1.4 | 30 ± 17 | 0.52 ± 0.01 | lower bone uptake | 4.28 ± 1.01 |  |  |  |  | 
COc1cc2c(cc1OC)C1CC(=O)C(CC(C)C)CN1CC2 (centres unmarked) [tetrabenazine] |  |  |  |  |  |  |  |  | decreased almost to the level of the cerebellum and occipital cortex | clear reduction |  |  | 
COc1cc2c(cc1OC)[C@H]1C[C@@H](O)[C@H](CC(C)C)CN1CC2 (single isomer, unassigned) [(+)-enantiomer, dihydrotetrabenazine] |  |  |  |  |  |  |  |  |  |  | 1000 |  | 
COc1cc2c(cc1OCC[18F])CCN1C[C@@H](CC(C)C)[C@H](O)C[C@H]21 [[^18F]FE-DTBZ, ^18F-fluoroethyl-(+)-dihydrotetrabenazine] | 3.8 ± 0.5 | > 60 | 1.1 ± 0.1 | 4.7 ± 0.3 | 10 ± 4 | 0.56 |  | 3.43 ± 0.54 |  |  |  | relatively poor | metabolized extensively by in vivo defluorination
